# Data: US20040044013A1, “1-dimercaptoalkylquinazolin-2,4(1h,3h)-diones as matrix metalloproteinase (mmp) inhibitors” (priority 2001, published 2004)
# Key:
# Format in all cases: biochemical
# MMP-9 = target: T1, MMP-9 (Homo sapiens, UniProt P14780); experiment: Quantitative fluorescence assay for matrix metalloproteinases, MMP-9
# T1 construct: from tissue; host or cells: human buffy coat (leukocytes)
# Protocol: Preparation of the Human Collagenase MMP-9
# Native MMP-9 was obtained reproducibly and with good yield and purity from human Buffy Coat. For this purpose, Buffy Coat is brought to a final concentration of 0.4% using 10% (v/v) triton X-100, shaken on ice for 30 min. and then 1 vol. double binding buffer (40 mM Tris-HCl, pH 7.5, 10 mM CaCl2, 1 M NaCl, 0.2% (v/v) triton X-100) is added and shaking on ice is continued for another 30 min.
# The solution is centrifuged off at 16,000 rpm on an SS-34 rotor at 4° C. for 15 min. and filtered on glass wool. The filtrate is batched with gelatin agarose equilibrated with binding buffer and shaken on ice for 1 hour.
# The charged gelatin agarose is transferred to a column and rinsed in protein-free manner using at least 10 vol. binding buffer. The bound MMP-9 is eluted with 2 gel volumes binding buffer plus 5% (v/v) DMSO.
# For an exchange of buffers and simultaneous separation of minor MMP-2 contaminations the eluate can be separated on sephadex G-75 by means of gel filtration. Buffer I (20 mM Tris-HCl, pH 7.5, 5 mM CaCl2, 100 mM NaCl, 0.1% (v/v) triton X-100) is used for this purpose. […]
# (§1) Quantitative Fluorescence Assay for Matrix Metalloproteinases
# (§2) The fluorescent group Mca is separated from the internal quencher Dpa by enzymatic cleavage of the synthetic substrate Mca-Pro-Leu-Gly-Leu-Dpa-Ala-Arg-NH2 using the respective collagenase. This is accompanied by a great increase in fluorescence in the measuring batch, which can be quantified using a fluorimeter (λex 328 nm, λem 393 nm) and proceeds linearly within the first few minutes. […] The proteolytic residual activity of pre-incubated batches of enzyme and inhibitor is measured, the substrate and enzyme concentrations having been kept constant and the inhibitor concentration having been varied. […]
# (§3) 5 min. preliminary incubation of the enzyme-inhibitor mixture at room temperature while stirring start of the reaction with 10 μl substrate dissolved in DMSO recording of the time-sensitive fluorescence increase over a period of 2 min.
# [1] = target: T2, catalytic domain of MMP-8 (Homo sapiens, UniProt P22894); experiment: Quantitative fluorescence assay for matrix metalloproteinases, MMP-8
# T2 construct: instead of the whole enzyme only its enzymatically active catalytic domain was cloned into E. coli; made in house; host or cells: E. coli
# T2 sequence (P22894 100-262 limits assumed): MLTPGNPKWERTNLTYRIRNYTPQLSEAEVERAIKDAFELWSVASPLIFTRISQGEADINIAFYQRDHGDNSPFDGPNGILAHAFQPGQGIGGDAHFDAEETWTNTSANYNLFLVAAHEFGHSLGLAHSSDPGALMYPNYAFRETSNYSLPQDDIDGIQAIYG
# Description: Cloning and Expression of the Catalytic MMP-8 Domain
# The catalytic MMP-8 domain was used as another test enzyme because it has a high degree of stability and is also available as an active enzyme and therefore needs not be activated, which is in consideration as one of the most frequent causes of error since the mercury compounds used for the activation often interfere with the test system and/or the enzyme and in this way can falsify the measuring results. The cloning strategy was directed towards the circumstance that instead of the whole enzyme only its enzymatically active catalytic domain was cloned into E. coli.
# The cloning and expression of the recombinant catalytic MMP-8 domain was carried out in accordance with the information given by SCHNIERER et al. (Schnierer S., Kleine T., Gote T., Hillemann A., Knauper V., Tschesche H.: The recombinant catalytic domain of human neutrophil collagenase lacks type I collagen substrate specificity. Biochem Biophys Res Comm (1993), vol. 191, No. 2, 319-326).
# as §1, §2, §3
# [2] = target: T3, recombinant catalytic domain of MMP-3 (Homo sapiens, UniProt P08254); experiment: Quantitative fluorescence assay for matrix metalloproteinases, MMP-3
# T3 construct: Cloning and Expression of the Catalytic Domains of MT1-MMP and MMP-3; made in house; host or cells: Escherichia coli (inclusion bodies, renatured)
# T3 sequence (P08254 100-272 limits assumed): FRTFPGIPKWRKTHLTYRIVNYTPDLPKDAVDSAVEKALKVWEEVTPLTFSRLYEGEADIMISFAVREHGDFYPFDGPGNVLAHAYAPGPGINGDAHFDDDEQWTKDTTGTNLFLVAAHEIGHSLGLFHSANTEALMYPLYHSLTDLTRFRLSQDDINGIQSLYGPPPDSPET
# Description: (§4) Cloning and Expression of the Catalytic Domains of MT1-MMP and MMP-3
# (§5) Based on the good experience with the use of the catalytic domain of MMP-8 in the kinetic measurements, two more recombinant expressions were established analogously, i.e. that of human membrane type 1 matrix metalloproteinase (MT1-MMP; MMP-14) and that of human MMP-3 (stromelysin-1). Both enzymes are exemplary representatives of subgroups of human matrix metalloproteinases. Both proteins may be renatured stably and in catalytically active form from inclusion bodies of transformed Escherichia coli cells. As in the recombinant MMP-8 thus the subsequent activation of the enzymes is dropped, which improves the reproducibility of the kinetic measurements. The purity of the recombinant enzyme domains was at least 70%.
# The cloning and expression of the catalytic domains oriented itself by the following publications: Lichte A., Kolkenbrock H., Tschesche H.: The recombinant catalytic domain of membrane-type matrix metalloproteinase-1 (MT1-MMP) induces activation of progelatinase A and progelatinase A complexed with TIMP-2. […]
# as §1, §2, §3
# MMP-2 = target: T4, MMP-2 (Homo sapiens, UniProt P08253); experiment: Quantitative fluorescence assay for matrix metalloproteinases, MMP-2
# T4 construct: endogenous in cells; host or cells: cultured human dermal fibroblasts (secreted into culture supernatant)
# T4 sequence (P08253 110-660): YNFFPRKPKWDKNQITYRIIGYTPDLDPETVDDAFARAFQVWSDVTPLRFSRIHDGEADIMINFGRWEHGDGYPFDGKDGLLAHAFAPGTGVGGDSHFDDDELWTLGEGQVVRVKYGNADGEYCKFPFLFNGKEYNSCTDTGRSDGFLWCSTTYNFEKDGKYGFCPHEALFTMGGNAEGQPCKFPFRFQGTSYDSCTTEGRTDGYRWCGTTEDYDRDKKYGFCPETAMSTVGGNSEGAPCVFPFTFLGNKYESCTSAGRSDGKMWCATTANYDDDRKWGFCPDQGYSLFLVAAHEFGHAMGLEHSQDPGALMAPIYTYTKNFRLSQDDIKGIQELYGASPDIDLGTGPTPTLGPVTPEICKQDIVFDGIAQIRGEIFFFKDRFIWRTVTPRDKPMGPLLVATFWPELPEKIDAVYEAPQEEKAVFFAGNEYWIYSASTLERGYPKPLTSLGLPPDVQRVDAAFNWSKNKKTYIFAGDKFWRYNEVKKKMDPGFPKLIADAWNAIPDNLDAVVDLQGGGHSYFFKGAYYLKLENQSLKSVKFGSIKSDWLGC
# Protocol: Inhibition of Matrix Metalloproteinase-2 (MMP-2)
# MMP-2 (gelatinase) is supplied by cultured dermal fibroblasts to the culture medium in considerable amounts and is thus easily accessible.
# For this purpose, human dermal fibroblasts are obtained according to established standard methods and cultured and the cell-free culture supernatant is treated with trypsin. Trypsin is then inactivated with a specific inhibitor (TLCK) and active MMP-2 is partially purified by affinity chromatography on gelatin sepharose and subsequent gel filtration on sepharose. MMP-2 was identified and characterized by the availability of a commercial immunoassay.
# as §1
# The fluorescent group Mca is separated from the internal quencher Dpa by enzymatic cleavage of the synthetic substrate Mca-Pro-Leu-Gly-Leu-Dpa-Ala-Arg-NH2 using the respective collagenase. This is accompanied by a great increase in fluorescence in the measuring batch, which can be quantified using a fluorimeter (λex 328 nm, λem 393 nm) and proceeds linearly within the first few minutes. A certain specificity of the test to matrix metalloproteinases follows from the amino acid sequence -Pro-Leu-Gly-Leu- in the substrate, on the one hand, and from the select incubation conditions, on the other hand. Matrix metalloproteinases cleave the substrate at the Gly-Leu bond. The proteolytic residual activity of pre-incubated batches of enzyme and inhibitor is measured, the substrate and enzyme concentrations having been kept constant and the inhibitor concentration having been varied. Three series of measurements using a different substrate concentration were made for each tested inhibitor.
# […] inhibitor dissolved in DMSO, or DMSO alone (non-inhibitory approach) 4 μl enzyme (MMP-2 or MMP-9 or catalytic domain of MMP-8)
# as §3
# [3] = target: T5, recombinant catalytic domain of MT1-MMP (MMP-14) (Homo sapiens, UniProt P50281); experiment: Quantitative fluorescence assay for matrix metalloproteinases, MT1-MMP
# T5 construct: Cloning and Expression of the Catalytic Domains of MT1-MMP and MMP-3; made in house; host or cells: Escherichia coli (inclusion bodies, renatured)
# Description: as §4
# as §5, with “The purity of the recombinant enzyme domains was at least 70%.” left out
# as §1, §2
# T1 sequence (P14780 107-707 limits assumed): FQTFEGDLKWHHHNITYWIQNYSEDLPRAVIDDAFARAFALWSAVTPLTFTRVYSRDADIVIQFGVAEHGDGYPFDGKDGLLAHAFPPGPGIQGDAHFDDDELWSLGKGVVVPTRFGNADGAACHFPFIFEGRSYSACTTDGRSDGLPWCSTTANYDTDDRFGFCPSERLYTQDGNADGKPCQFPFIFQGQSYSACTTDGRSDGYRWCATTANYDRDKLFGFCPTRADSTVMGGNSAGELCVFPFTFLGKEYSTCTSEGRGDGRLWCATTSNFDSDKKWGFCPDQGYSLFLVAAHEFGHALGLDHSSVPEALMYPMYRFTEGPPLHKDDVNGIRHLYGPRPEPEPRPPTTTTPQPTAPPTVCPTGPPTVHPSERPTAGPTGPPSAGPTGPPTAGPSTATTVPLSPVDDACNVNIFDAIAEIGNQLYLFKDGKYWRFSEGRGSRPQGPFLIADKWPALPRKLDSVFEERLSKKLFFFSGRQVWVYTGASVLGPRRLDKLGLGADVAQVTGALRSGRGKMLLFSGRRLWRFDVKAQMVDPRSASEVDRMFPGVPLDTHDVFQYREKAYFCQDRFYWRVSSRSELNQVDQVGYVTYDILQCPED
smiles,measurement,setting,value
"O=c1[nH]c(=O)n(CC(S)CS)c2ccccc12 (racemic) [Example 2, (R,S)-1-(2′,3′-Dimercapto-prop-1′-yl)quinazoline-2,4(1H,3H)-dione]",MMP-9 inhibition,MMP-9; with 4 μM inhibitor,80%
same,MMP-8 inhibition,[1]; with 4 μM inhibitor,75%
same,MMP-3 inhibition,[2]; with 4 μM inhibitor,75%
same,MMP-2 inhibition,MMP-2; with 4 μM inhibitor,75%
same,MT1-MMP inhibition,[3]; with 4 μM inhibitor,60%
"O=c1[nH]c(=O)n(CCC(S)CS)c2ccccc12 (racemic) [Example 3, (R,S)-1-(3′,4′-Dimercapto-but-1′-yl)quinazoline-2,4(1H,3H)dione]",MMP-9 inhibition,MMP-9; with 3.5 μM inhibitor,50%
same,MMP-8 inhibition,[1]; with 3.5 μM inhibitor,50%
same,MMP-3 inhibition,[2]; with 9 μM inhibitor,50%
same,MMP-2 inhibition,MMP-2; with 5 μM inhibitor,50%
"O=c1[nH]c(=O)n(C(CS)CS)c2ccccc12 [Example 1, 1-(1′,3′-Dimercapto-prop-2′-yl)quinazoline-2,4(1H,3H)dione]",MMP-9 inhibition,MMP-9; with 10 μM inhibitor,60%
same,MMP-8 inhibition,[1]; with 10 μM inhibitor,70%
same,MMP-3 inhibition,[2]; with 10 μM inhibitor,50%
same,MMP-2 inhibition,MMP-2; with 10 μM inhibitor,50%
same,MT1-MMP inhibition,[3]; with 10 μM inhibitor,30% inhi-
